# US5380715A, “Ap4 A as a hypotensive agent” (Fujirebio Inc., priority 1992, dated 1995)
# Entries after “also recorded” stand apart in the source; their conditions may differ.
# What was measured:
# [1] = tested on: rats; experiment: Gradual hypotension during anesthesia in rats; format: in vivo, male SD rats; details: rat, enflurane
# Description: Male SD rats (Charles River Japan Inc.) were anesthetized with intravenous thiopental 50 mg/kg as a bolus, followed by 1% enflurane in air.
# A femoral artery was catheterized to monitor the blood pressure and heart rate, while a femoral vein was catheterized for the administration of each of the test drugs.
# (§1) The control values were obtained before the administration of each test drug. Each test drug was then administered using a syringe in a dose-dependent manner for 15 minutes. The percentage (%) of the decrease of blood pressure was determined when stabilized. Changes in heart rate (H.R.) at the administration of each test drug were measured. Furthermore,the recovery of mean blood pressure after intravenous infusion of each test drug was also determined from the decrease in heart rate and the blood pressure at a maximum dose of each test drug.
# [2] = tested on: rats; experiment: Recovery of blood pressure after gradual hypotension in rats; format: in vivo, male SD rats; details: rat
# Description: FIG. 1 is a graph showing the recovery of the blood pressure of rats anesthetized with enflurane with time, when each of Ap4A ( ), PG E1 ( ) and nitroglycerin ( ) was used as a test drug to attain gradual hypotension, with the blood pressure before the administration of each test drug being set 100% for reference.
# The recovery of blood pressure after gradual hypotension by use of each of Ap4A, PG E1 and nitroglycerin was also tested.
# as §1
# In a test similar to the above, each of Ap4A, PG E1, and nitroglycerin was administered to rats, so that about 65% fall in blood pressure, about 55% fall in blood pressure, and about 35% fall in blood pressure were stepwise attained. With respect to each agent, the recovery of blood pressure was tested.
# [3] = words; cited from earlier work
# [4] = tested on: dogs; experiment: Gradual hypotension during anesthesia in dogs (hemodynamics, blood gas); format: in vivo, mongrel dogs; details: dog
# Description: Dogs were anesthetized with enflurane. […] The mean blood pressure (B.P.), heart rate (H.R.), cardiac output (C.O.), arterial oxygen tension (PaO2), mixed venos oxygen tension (PvO2), arterial carbonate tension (PaCO2), mixed venous carbonate tension (PvCO2), arterial pH (pH-a), mixed venous pH (pH-v), and base excess thereof were measured.
# Mongrel dogs weighing 9 to 17 kg were anesthetized with intravenous thiopental 20 mg/kg by bolus injection, followed by 1% enflurane in 40% O2 /N2 after endotracheal intubation. […] Bilateral femoral arteries were catheterized, one for the determination of blood pressure and the other for blood sampling.
# Access to the bilateral femoral veins was obtained for the administration of Ap4A, PG E1 or nitroglycerin and for the insertion of a ballon-tipped thermodilution catheter. The electrocardiogram was continuously monitored. The control values were obtained before the administration of each of the above-mentioned three agents. Each agent was administered using a syringe pump at titrated doses to produce gradual 20%, 40%, 50%, 60%, and 80% decreases in the mean arterial pressure (MAP) from the control value.
# After the target blood pressure and stable hemodynamic conditions were reached, the following parameters were measured: heart rate (HR), mean pulmonary artery pressure (PAM), pulmonary capillary wedge pressure (PCWP), and central venous pressure (CVP). Cardiac output (CO) was determined by the thermodilution method. Gas analyses of arterial and mixed venous bloods were performed using a blood gas analyzer.
# [5] = enflurane, at -20% blood pressure
smiles,measurement,setting,value
"O=[N+]([O-])OCC(CO[N+](=O)[O-])O[N+](=O)[O-] [nitroglycerin, reference compound]",Blood Pressure (Δ%),[1]; infusion 0.03 μg/kg/min,0%
same,Heart Rate (Δ%),[1]; infusion 0.03 μg/kg/min,0%
same,Blood Pressure (Δ%),[1]; infusion 0.1 μg/kg/min,0%
same,Heart Rate (Δ%),[1]; infusion 0.1 μg/kg/min,0%
same,Blood Pressure (Δ%),[1]; infusion 0.3 μg/kg/min,-1.0 ± 1.0%
same,Heart Rate (Δ%),[1]; infusion 0.3 μg/kg/min,-0.3 ± 0.5%
same,Blood Pressure (Δ%),[1]; infusion 1 μg/kg/min,-7.5 ± 3.2%
same,Heart Rate (Δ%),[1]; infusion 1 μg/kg/min,-1.5 ± 1.1%
same,Blood Pressure (Δ%),[1]; infusion 3 μg/kg/min,-16.4 ± 4.4%
same,Heart Rate (Δ%),[1]; infusion 3 μg/kg/min,-6.5 ± 2.3%
same,Blood Pressure (Δ%),[1]; infusion 10 μg/kg/min,-24.7 ± 4.4%
same,Heart Rate (Δ%),[1]; infusion 10 μg/kg/min,-13.9 ± 4.0%
same,Blood Pressure (Δ%),[1]; infusion 30 μg/kg/min,-27.6 ± 5.2%
same,Heart Rate (Δ%),[1]; infusion 30 μg/kg/min,-13.8 ± 4.7%
same,"recovered blood pressure (before administration = 100%), plateau",[2]; plateau,about 85%
same,fall in blood pressure attained before recovery,[2]; stepwise,about 35%
same,rapidness of the recovery of blood pressure,[2]; order in words,Ap4A>PG E1 >nitroglycerin
same,shortcomings / adverse effects,[3],"congestion by the expansion of vanation, and tachycardia are caused; also recorded: sthenia of brain pressure is caused; also recorded: the arterial oxygen tension (PaO2) is decreased during hypotensive anesthesia"
same,fall in blood pressure attainable,[4]; enflurane,~30%
same,Arterial Carbonate Tension PaCO2,[4]; [5],36.4 ± 1.6 mmHg
same,Arterial Oxygen Tension PaO2,[4]; [5],229.9 ± 2.7 mmHg
same,Arterial pH (pH-a),[4]; [5],7.315 ± 0.020
same,Body Temperature BT,[4]; [5],38.6 ± 0.3 °C
same,Cardiac Output C.O.,[4]; [5],1.58 ± 0.21 L/min
same,Central Venous Pressure CVP,[4]; [5],2.32 ± 0.75 mmHg
same,Dose,[4]; [5],42.2 ± 2.0 µg/kg/min
same,Heart Rate H.R.,[4]; [5],191.7 ± 7.5 beats/min
same,Hematocrit Value Hct,[4]; [5],42.2 ± 2.0%
same,Mean Blood Pressure B.P. (mean),[4]; [5],101.0 ± 1.5
same,Mean Blood Pressure B.P. (Δ%),[4]; [5],-18.7 ± 0.9%
same,Mixed Venous Carbonate Tension PvCO2,[4]; [5],39.6 ± 1.6 mmHg
same,Mixed Venous Oxygen Tension PvO2,[4]; [5],46.5 ± 2.7 mmHg
same,Mixed Venous pH (pH-v),[4]; [5],7.300 ± 0.014
same,Pulmonary Artery Pressure PAM,[4]; [5],12.8 ± 1.0 mmHg
same,Pulmonary Capillary Wedge Pressure PCWP,[4]; [5],8.0 ± 0.6 mmHg
same,effect on arterial pH / venous pH,[4]; result in words,significantly decrease arterial pH or have a tendency to decrease arterial pH
same,effect on heart rate,[4]; result in words,tendency to increase the heart rate when a 20% fall in blood pressure is attained
same,effect on oxygen tension,[4]; result in words,decreases PaO2
